Reference: patent US10344060B2 (priority 2013, dated 2019)
Where two headings read alike, the source gives them in different places.

Legend:
[1] = tested on: TTX-sensitive Nav channels in Sprague Dawley rat DRG neuron
hNav1.7 [2] = target: T1, hNav1.7 (Homo sapiens, UniProt Q15858); assay: cell-based; type: cell-based; settings: for block of hNav1.7 current: 100 nM
hNav1.6 = hNav1.6 (Homo sapiens, UniProt Q9UQD0); assay: cell-based; type: cell-based; settings: for Nav1.6/Nav1.7 / IC50: Table 15; for Nav1.6/Nav1.7: ratio of PX tonic IC50 values; for IC50: read-out: PX hNav1.6 Tonic IC50
hNav1.4 [3] = target: T2, hNav1.4 (Homo sapiens, UniProt P35499); assay: cell-based; type: cell-based; settings: Table 12; for Nav1.4/Nav1.7: ratio of PX tonic IC50 values
[4] = tested on: TTX-sensitive Nav channels in mouse DRG neuron; settings: for 1.x/1.7: partially inactivated, mTTX-S / hNav1.7
hNav1.7 [5] = target: T1, hNav1.7; assay: cell-based; type: cell-based; settings: read-out: PX hNav1.7 Tonic IC50
in vivo [6] = settings: female, Sprague-Dawley, rat, sc
hNav1.5 [7] = target: T3, hNav1.5 (Homo sapiens, UniProt Q14524); assay: cell-based; settings: Table 12; ratio of PX tonic IC50 values
[8] = for mean Cmax over the rat DRG Nav1.7: Sprague-Dawley rats
in vivo [9] = settings: male, CD-1, mouse, sc
hNav1.8 [10] = assay: cell-based; type: cell-based, human; settings: partially inactivated, hNav1.8 / hNav1.7
hNav1.8 [11] = target: hNav1.8 (Homo sapiens, UniProt Q9Y5Y9); assay: cell-based; type: cell-based
hNav1.4 [12] = target: T2, hNav1.4; assay: cell-based; type: cell-based
human Nav1.2 = human Nav1.2 (Homo sapiens, UniProt Q99250); assay: cell-based; type: cell-based
hNav1.3 = hNav1.3 (Homo sapiens, UniProt Q9NY46); assay: cell-based; type: cell-based
human Nav1.1 = human Nav1.1 (Homo sapiens, UniProt P35498); assay: cell-based; type: cell-based
hNav1.5 [13] = target: T3, hNav1.5; assay: cell-based; type: cell-based
human Nav1.6 = human Nav1.6 (Homo sapiens, UniProt Q9UQD0); assay: cell-based; type: cell-based
male CD-1 mice = settings: mouse, in vivo

human Nav1.2, sequence (Q99250 whole entry): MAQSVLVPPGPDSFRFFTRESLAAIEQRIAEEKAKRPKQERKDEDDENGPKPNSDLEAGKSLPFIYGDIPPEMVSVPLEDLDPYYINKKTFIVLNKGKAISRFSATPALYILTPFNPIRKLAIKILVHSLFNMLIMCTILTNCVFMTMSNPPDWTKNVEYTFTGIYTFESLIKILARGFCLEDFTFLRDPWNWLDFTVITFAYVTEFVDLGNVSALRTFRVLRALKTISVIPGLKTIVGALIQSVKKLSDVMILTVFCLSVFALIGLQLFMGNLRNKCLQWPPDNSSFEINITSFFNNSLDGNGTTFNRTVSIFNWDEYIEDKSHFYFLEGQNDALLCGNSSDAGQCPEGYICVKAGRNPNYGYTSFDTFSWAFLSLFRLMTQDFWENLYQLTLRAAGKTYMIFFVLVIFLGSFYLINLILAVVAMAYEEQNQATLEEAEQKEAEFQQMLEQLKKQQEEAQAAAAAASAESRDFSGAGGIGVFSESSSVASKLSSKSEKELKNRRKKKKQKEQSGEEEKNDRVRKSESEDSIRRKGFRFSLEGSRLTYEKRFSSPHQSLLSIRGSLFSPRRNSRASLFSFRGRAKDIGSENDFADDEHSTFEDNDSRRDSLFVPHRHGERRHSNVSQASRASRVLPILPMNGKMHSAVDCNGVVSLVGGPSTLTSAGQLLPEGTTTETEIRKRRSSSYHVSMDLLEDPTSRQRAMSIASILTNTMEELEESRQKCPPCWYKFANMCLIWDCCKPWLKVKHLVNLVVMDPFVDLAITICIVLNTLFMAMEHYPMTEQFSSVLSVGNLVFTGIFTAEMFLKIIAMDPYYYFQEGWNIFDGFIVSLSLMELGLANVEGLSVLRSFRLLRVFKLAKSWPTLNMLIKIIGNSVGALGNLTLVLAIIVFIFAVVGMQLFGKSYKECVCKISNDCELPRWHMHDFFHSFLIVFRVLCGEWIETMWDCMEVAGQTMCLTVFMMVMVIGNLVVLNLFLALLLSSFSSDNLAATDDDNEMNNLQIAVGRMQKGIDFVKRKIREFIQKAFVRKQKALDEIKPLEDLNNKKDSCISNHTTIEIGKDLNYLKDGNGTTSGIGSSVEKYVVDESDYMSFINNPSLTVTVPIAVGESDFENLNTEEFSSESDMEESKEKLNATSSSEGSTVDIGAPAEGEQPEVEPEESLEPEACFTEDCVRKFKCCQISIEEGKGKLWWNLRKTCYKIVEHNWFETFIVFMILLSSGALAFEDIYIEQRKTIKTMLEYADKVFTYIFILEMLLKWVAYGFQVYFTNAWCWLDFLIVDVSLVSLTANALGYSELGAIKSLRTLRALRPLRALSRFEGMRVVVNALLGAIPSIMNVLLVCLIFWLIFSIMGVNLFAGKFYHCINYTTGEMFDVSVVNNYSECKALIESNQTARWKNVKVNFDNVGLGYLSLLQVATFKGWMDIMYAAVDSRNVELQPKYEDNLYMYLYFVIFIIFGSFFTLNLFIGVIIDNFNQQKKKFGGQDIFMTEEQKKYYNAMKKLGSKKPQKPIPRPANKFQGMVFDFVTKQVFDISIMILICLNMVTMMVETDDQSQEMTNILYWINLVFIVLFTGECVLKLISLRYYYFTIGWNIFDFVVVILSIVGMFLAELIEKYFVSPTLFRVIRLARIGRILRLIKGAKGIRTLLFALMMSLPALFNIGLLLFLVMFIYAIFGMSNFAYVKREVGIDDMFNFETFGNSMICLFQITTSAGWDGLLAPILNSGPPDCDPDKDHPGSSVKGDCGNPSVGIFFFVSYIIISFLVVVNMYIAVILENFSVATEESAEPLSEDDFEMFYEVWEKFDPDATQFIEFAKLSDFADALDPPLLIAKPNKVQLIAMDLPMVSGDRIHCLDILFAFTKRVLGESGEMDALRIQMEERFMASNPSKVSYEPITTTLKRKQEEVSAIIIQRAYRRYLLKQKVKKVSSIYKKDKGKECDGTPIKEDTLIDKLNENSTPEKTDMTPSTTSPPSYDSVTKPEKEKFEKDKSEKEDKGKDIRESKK
T3 sequence (Q14524 whole entry): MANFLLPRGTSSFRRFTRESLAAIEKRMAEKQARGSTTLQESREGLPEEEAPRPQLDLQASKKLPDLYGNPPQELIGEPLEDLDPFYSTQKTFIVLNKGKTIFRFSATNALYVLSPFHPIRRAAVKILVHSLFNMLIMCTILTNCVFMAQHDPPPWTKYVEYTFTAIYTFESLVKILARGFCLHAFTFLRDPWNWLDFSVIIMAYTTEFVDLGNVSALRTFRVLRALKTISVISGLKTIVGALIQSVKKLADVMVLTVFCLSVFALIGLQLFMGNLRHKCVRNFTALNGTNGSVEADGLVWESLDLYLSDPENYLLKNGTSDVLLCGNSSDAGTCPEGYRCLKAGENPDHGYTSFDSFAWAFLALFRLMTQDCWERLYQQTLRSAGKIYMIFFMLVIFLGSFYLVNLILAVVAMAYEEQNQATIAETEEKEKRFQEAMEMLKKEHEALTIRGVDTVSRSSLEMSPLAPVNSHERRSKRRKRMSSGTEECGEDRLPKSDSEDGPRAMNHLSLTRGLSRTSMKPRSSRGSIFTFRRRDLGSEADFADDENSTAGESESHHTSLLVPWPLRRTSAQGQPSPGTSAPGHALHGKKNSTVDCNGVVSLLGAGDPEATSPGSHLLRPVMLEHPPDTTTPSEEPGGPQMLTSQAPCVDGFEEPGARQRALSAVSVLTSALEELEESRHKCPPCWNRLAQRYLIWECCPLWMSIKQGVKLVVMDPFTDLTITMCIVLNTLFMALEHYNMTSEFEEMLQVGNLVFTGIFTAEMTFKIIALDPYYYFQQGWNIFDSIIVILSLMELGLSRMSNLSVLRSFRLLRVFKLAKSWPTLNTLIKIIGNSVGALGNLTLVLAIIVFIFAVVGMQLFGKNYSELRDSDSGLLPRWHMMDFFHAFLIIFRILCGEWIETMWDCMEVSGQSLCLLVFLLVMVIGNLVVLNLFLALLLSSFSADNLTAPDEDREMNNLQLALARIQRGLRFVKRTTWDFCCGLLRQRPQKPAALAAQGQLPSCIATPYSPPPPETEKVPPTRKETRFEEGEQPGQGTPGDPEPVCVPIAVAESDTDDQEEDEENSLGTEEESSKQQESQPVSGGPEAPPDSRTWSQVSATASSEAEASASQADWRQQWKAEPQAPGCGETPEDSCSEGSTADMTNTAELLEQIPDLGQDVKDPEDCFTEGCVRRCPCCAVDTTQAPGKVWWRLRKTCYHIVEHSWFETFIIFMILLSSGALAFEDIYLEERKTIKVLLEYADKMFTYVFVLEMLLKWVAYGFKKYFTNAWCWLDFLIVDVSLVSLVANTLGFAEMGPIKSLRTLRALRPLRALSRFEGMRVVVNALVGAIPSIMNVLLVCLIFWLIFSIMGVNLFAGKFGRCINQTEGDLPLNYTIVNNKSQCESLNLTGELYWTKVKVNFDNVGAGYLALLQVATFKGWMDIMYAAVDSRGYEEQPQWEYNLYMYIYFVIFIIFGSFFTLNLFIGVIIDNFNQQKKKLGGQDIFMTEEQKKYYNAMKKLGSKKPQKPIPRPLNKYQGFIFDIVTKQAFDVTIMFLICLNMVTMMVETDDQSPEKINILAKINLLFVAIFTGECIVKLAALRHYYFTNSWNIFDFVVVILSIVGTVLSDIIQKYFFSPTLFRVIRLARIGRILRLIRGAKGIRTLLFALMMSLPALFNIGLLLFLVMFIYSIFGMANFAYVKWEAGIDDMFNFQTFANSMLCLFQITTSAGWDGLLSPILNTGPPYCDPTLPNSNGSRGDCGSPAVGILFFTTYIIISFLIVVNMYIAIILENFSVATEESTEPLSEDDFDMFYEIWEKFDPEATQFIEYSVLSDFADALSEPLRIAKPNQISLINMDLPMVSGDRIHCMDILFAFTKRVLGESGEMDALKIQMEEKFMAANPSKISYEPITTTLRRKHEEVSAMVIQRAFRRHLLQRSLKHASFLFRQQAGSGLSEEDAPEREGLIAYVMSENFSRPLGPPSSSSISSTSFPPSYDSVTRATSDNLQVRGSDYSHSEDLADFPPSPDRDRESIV

With `C#CC[C@@H]1NC(=O)[C@@H]2CSSC[C@H](NC(=O)[C@H](Cc3ccc(O)cc3)NC(=O)[C@@H](N)CC#N)C(=O)N[C@@H](CCC(N)=O)C(=O)N[C@@H](CCCCN)C(=O)N[C@@H](Cc3c[nH]c4ccccc34)C(=O)N[C@@H](CCCC)C(=O)N[C@@H](Cc3c[nH]c4ccccc34)C(=O)N[C@@H]([C@@H](C)O)C(=O)N[C@H]3CSSC[C@H](NC(=O)[C@H](CCCNC(=N)N)NC(=O)[C@H](CC(C)C)NC(=O)CNC1=O)C(=O)N[C@@H](CCCCN)C(=O)N[C@@H](CC(C)C)C(=O)N[C@@H](Cc1c[nH]c4ccccc14)C(=O)N[C@H](C(=O)N[C@@H](CCCNC(=N)N)C(=O)N[C@@H](CCCCN)C(=O)N[C@@H](CCC(=O)O)C(=O)N[C@H](C(N)=O)[C@@H](C)CC)CSSC[C@H](NC(=O)[C@H](C)NC(=O)[C@H](CCCNC(=N)N)NC(=O)[C@H](CCCCN)NC(=O)[C@H](CO)NC(=O)[C@H](CC(=O)O)NC3=O)C(=O)N2` [CyA-[Nle6,Glu28]JzTx-V(1-29)] the IC50 [1] was 9.25 nM.
In the case of `C#CC[C@H](N)C(=O)N[C@@H](Cc1ccc(O)cc1)C(=O)N[C@H]1CSSC[C@@H]2NC(=O)[C@@H]3CSSC[C@@H](C(=O)N[C@@H](CCCNC(=N)N)C(=O)N[C@@H](CCCCN)C(=O)N[C@@H](CCC(=O)O)C(=O)N[C@H](C(N)=O)[C@@H](C)CC)NC(=O)[C@H](Cc4c[nH]c5ccc(Br)cc45)NC(=O)[C@H](CC(C)C)NC(=O)[C@H](CCCCN)NC(=O)[C@H](CSSC[C@H](NC(=O)[C@H]([C@@H](C)O)NC(=O)[C@H](Cc4c[nH]c5ccccc45)NC(=O)[C@H](CCCC)NC(=O)[C@H](Cc4c[nH]c5ccccc45)NC(=O)[C@H](CCCCN)NC(=O)[C@H](CCC(N)=O)NC1=O)C(=O)N[C@@H](CC(=O)O)C(=O)N[C@@H](CO)C(=O)N[C@@H](CCCCN)C(=O)N[C@@H](CCCNC(=N)N)C(=O)N[C@@H](C)C(=O)N3)NC(=O)[C@H](CCCNC(=N)N)NC(=O)[C@H](CC(C)C)NC(=O)CNC(=O)[C@H](CCC(=O)O)NC2=O` [compound 858], the “block of hNav1.7 current” value (hNav1.7 [2]) is reported as “approximately 90%”, the IC50 (hNav1.7 [2]; WCPC, partially inactivated, hNav1.7, n=2, read-out: Mean IC50) is reported as 0.13 nM and the “potency against hNav1.7, in words” value (hNav1.7 [2]; manual WCPC) is reported as “sub-nanomolar potent inhibitor”. For the same compound, the Nav1.6/Nav1.7 (hNav1.6) was 829, the IC50 (hNav1.6) was 49.2 nM and the IC50 (hNav1.4 [3]; PatchXpress, tonic block, read-out: PX hNav1.4 Tonic IC50) was 40.4 nM. The Nav1.4/Nav1.7 (hNav1.4 [3]) was 1036, the IC50 [4] was 3.8 nM and the “block of TTX-sensitive Nav current, in words” value ([4]; 30 nM, C57 Black 6 mouse DRG neuron) was “blocks most of TTX-sensitive Nav current”. The “potency on TTX-S current in mDRG neurons, in words” value ([4]; manual patch clamp) was “single digit-nanomolar inhibitor”, the 1.x/1.7 [4] was 29 and the IC50 (hNav1.7 [5]; Table 12, PatchXpress, tonic block) was 0.039 nM. The IC50 (hNav1.7 [5]; Table 15) was 0.059 nM.
Work on `C#CC[C@@H]1NC(=O)[C@@H]2CSSC[C@H](NC(=O)[C@H](Cc3ccc(O)cc3)NC(=O)[C@@H](N)CC#N)C(=O)N[C@@H](CCC(N)=O)C(=O)N[C@@H](CCCCN)C(=O)N[C@@H](Cc3c[nH]c4ccccc34)C(=O)N[C@@H](CCCC)C(=O)N[C@@H](Cc3c[nH]c4ccccc34)C(=O)N[C@@H]([C@@H](C)O)C(=O)N[C@H]3CSSC[C@H](NC(=O)[C@H](CCCNC(=N)N)NC(=O)[C@H](CC(C)C)NC(=O)CNC1=O)C(=O)N[C@@H](CCCCN)C(=O)N[C@@H](CC(C)C)C(=O)N[C@@H](Cc1c[nH]c4ccccc14)C(=O)N[C@H](C(=O)N[C@@H](CCCNC(=N)N)C(=O)N[C@@H](CCCCN)C(=O)N[C@@H](CCC(=O)O)C(=O)N[C@H](C(N)=O)[C@@H](C)CC)CSSC[C@H](NC(=O)[C@H](C)NC(=O)[C@H](CCCNC(=N)N)NC(=O)[C@H](CCCCN)NC(=O)[C@H](CO)NC(=O)[C@H](CC(=O)O)NC3=O)C(=O)N2` [compound 395] yielded a Cmax (in vivo [6]; 1 mg/kg) of 79 nM, a Tmax (in vivo [6]; 1 mg/kg) of 1 h and a Cmax (in vivo [6]; 3 mg/kg) of 430 nM. The Tmax (in vivo [6]; 3 mg/kg) was 3 h, the Cmax (in vivo [6]; 10 mg/kg) was 970 nM and the Tmax (in vivo [6]; 10 mg/kg) was 3 h. The Nav1.5/Nav1.7 (hNav1.5 [7]) was 256, the “mean Cmax over the mouse DRG Nav1.7 IC50” value (CD-1 male mouse, 2 mg/kg s.c.) was 46 fold and the “mean Cmax over the rat DRG Nav1.7” value ([8]; 1 mg/kg s.c.) was 56 fold. For the same compound, the “mean Cmax over the rat DRG Nav1.7” value ([8]; 3 mg/kg s.c.) was 306 fold, the “mean Cmax over the rat DRG Nav1.7” value ([8]; 10 mg/kg s.c.) was 684 fold and the tolerability ([8]; Sprague-Dawley rats, 1, 3 or 10 mg/kg single s.c. administration) was “All the doses were tolerated”. For the same compound, the Nav1.6/Nav1.7 (hNav1.6) was 94, the IC50 (hNav1.6) was 73.2 nM and the IC50 [4] was 15.9 nM. The “potency relative to wild type peptide, in words” value ([4]; TTX-sensitive current in mouse DRG neurons) was “equipotent”, the IC50 (hNav1.7 [5]; Table 15) was 0.779 nM and the IC50 [1] was 9.25 nM. The Cmax (in vivo [9]; 2 mg/kg) was 730 nM and the half-life (in vivo [9]; 2 mg/kg) was about 2.3 h.
In the case of `C#CC[C@H](N)C(=O)N[C@@H](Cc1ccc(O)cc1)C(=O)N[C@H]1CSSC[C@@H]2NC(=O)[C@@H]3CSSC[C@@H](C(=O)N[C@@H](CCCNC(=N)N)C(=O)N[C@@H](CCCCN)C(=O)N[C@@H](CCC(=O)O)C(=O)N[C@H](C(N)=O)[C@@H](C)CC)NC(=O)[C@H](Cc4c[nH]c5ccccc45)NC(=O)[C@H](CC(C)C)NC(=O)[C@H](CCCCN)NC(=O)[C@H](CSSC[C@H](NC(=O)[C@H]([C@@H](C)O)NC(=O)[C@H](Cc4c[nH]c5ccccc45)NC(=O)[C@H](CCCC)NC(=O)[C@H](Cc4c[nH]c5ccccc45)NC(=O)[C@H](CCCCN)NC(=O)[C@H](CCC(N)=O)NC1=O)C(=O)N[C@@H](CC(=O)O)C(=O)N[C@@H](CO)C(=O)N[C@@H](CCCCN)C(=O)N[C@@H](CCCNC(=N)N)C(=O)N[C@@H](C)C(=O)N3)NC(=O)[C@H](CCCNC(=N)N)NC(=O)[C@H](CC(C)C)NC(=O)CNC(=O)[C@H](CCC(=O)O)NC2=O` [compound 328], the 1.x/1.7 (hNav1.8 [10]) is reported as over 1613, the IC50 (hNav1.8 [11]) is reported as over 1000 nM and the “block of TTX-resistant hNav1.8 current” value (hNav1.8 [11]; 1000 nM) is reported as “approximately 30%”. The IC50 (hNav1.8 [11]; WCPC, partially inactivated, hNav1.8, n=2, read-out: Mean IC50) was over 1000 nM, the “block of hNav1.7 current” value (hNav1.7 [2]) was “approximately 95%” and the “potency against hNav1.7, in words” value (hNav1.7 [2]; manual WCPC) was “sub-nanomolar potency”. The “selectivity for hNav1.7 against other human VGSCs” value (hNav1.7 [2]; manual WCPC, hNav1.1-hNav1.8) was over 30 fold, the IC50 (hNav1.7 [2]; read-out: IC50 of hNav1.7 inhibition) was 0.62 nM and the Nav1.5/Nav1.7 (hNav1.5 [7]) was 5854. The “mean Cmax over the mouse DRG Nav1.7 IC50” value (male CD-1 mice, 5 mg/kg s.c.) was 196 fold, the “selectivity for Nav1.7 over Nav1.6” value (hNav1.6; PatchXpress) was 334 fold and the Nav1.6/Nav1.7 (hNav1.6) was 334. The IC50 (hNav1.6) was 183 nM, the “block of hNav1.4 current” value (hNav1.4 [12]; 1000 nM, held at −78 mV) was “approximately 90%” and the IC50 (hNav1.4 [12]; manual WCPC, partially inactivated state, read-out: IC50 of hNav1.4 inhibition) was 74.6 nM. The 1.x/1.7 (hNav1.4 [12]; partially inactivated, hNav1.4 / hNav1.7) was 120, the “block of hNav1.2 current, in words” value (human Nav1.2; 1000 nM, held at −65 mV) was “blocks the majority of Nav current” and the IC50 (human Nav1.2; manual patch clamp, ~20% inactivation, read-out: IC50 hNav1.2) was 44.4 nM. It also gave a 1.x/1.7 (human Nav1.2; partially inactivated, hNav1.2 / hNav1.7) of 72, a Nav1.4/Nav1.7 (hNav1.4 [3]) of 253 and an IC50 [4] of 11.2 nM. For the same compound, the “block of TTX-sensitive Nav current” value ([4]; 300 nM, C57 Black 6 mouse DRG neuron) was “approximately 90%”, the 1.x/1.7 [4] was 18 and the “block of hNav1.3 current” value (hNav1.3; 1000 nM, held at −68 mV) was “approximately 90%”. The IC50 (hNav1.3; manual WCPC, ~20% inactivation, read-out: IC50 of hNav1.3 inhibition) was 52.5 nM, the 1.x/1.7 (hNav1.3; partially inactivated, hNav1.3 / hNav1.7) was 85 and the “block of hNav1.1 current” value (human Nav1.1; 1000 nM, held at −70 mV) was “approximately 95%”. The IC50 (human Nav1.1; manual patch clamp, ~20% inactivation, read-out: IC50 hNav1.1) was 27.2 nM, the 1.x/1.7 (human Nav1.1; partially inactivated, hNav1.1 / hNav1.7) was 44 and the “block of hNav1.5 current” value (hNav1.5 [13]; 1000 nM, held at −77 mV) was “less than 10%”. For the same compound, the IC50 (hNav1.5 [13]; WCPC, partially inactivated, hNav1.5, n=2, read-out: Mean IC50) was over 1000 nM, the IC50 (hNav1.5 [13]; manual WCPC, ~20% inactivation, read-out: IC50 of hNav1.5 inhibition) was over 1000 nM and the 1.x/1.7 (hNav1.5 [13]; partially inactivated, hNav1.5 / hNav1.7) was over 1613. The “block of hNav1.6 current, in words” value (human Nav1.6; 1000 nM, held at −67 mV) was “blocks the majority of Nav current”, the IC50 (human Nav1.6; manual patch clamp, ~20% inactivation, read-out: IC50 hNav1.6) was 19.4 nM and the 1.x/1.7 (human Nav1.6; partially inactivated, hNav1.6 / hNav1.7) was 31. For the same compound, the IC50 (hNav1.7 [5]; Table 15) was 0.548 nM, the IC50 [1] was 30.7 nM and the “block of TTX-sensitive Nav current” value ([1]; 300 nM, Sprague Dawley rat DRG neuron held at −78 mV) was “approximately 85%”. It also gave a 1.x/1.7 ([1]; partially inactivated, rTTX-S / hNav1.7) of 50, a Cmax (in vivo [9]; 5 mg/kg) of 2200 nM and a half-life (in vivo [9]; 5 mg/kg) of about 4.5 h.
In the case of `Cc1cccc(C)c1OCC(C)N` (centres unmarked) [mexilitine, reference compound], the “reversal of thermal hyperalgesia, positive control” value (male CD-1 mice) is reported as “sufficient to significantly reverse thermal hyperalgesia”.
